{"source": "patent US5663154A", "about": "“2',3'-dideoxy-3'-fluoro-purine ribonucleosides” (Glaxo Wellcome Inc., priority 1992, dated 1997)", "key": {"[1]": {"tested_on": "HIV", "assay": "Antiviral activity against HIV: reversal of cytopathic effect in MT4 cells, propidium iodide dye uptake", "format": "cell-based", "conditions": "Human immunodeficiency virus 1, 120 h, HIV-1 (strain 3B) or HIV-2 (Zagury strain), not stated which, 5 days", "protocol": "Anti-HIV activity of compounds of formula (I) was determined using the method of Averett D. R., 1989, J. Virol. Methods, 23, pp263-276, by measuring the ability of the compound to reverse the cytopathic effect of HIV infection. This was determined by a quantitative assessment of cell growth monitored at the fifth day post infection by a propidium iodide dye uptake test. MT4 cells were incubated with 100XTCID50 of HIV-1 (strain 3B) or HIV-2 (Zagury strain) for one hour prior to addition of the compound in six different concentrations varying from 2 to 200 μM. The cells were allowed to incubate for five days at 37° C. On day 5, NP-40, a detergent, was added to a final concentration of 0.5% immediately prior to analysis. Cell number was determined using a method which measures the fluorescence of a dye (propidium iodide) which binds to DNA. Since the amount of DNA is directly proportional to cell number, this fluorescence assay is an indication of cell growth. While uninfected cells double in cell number several times during the five days duration of the assay, HIV-infected cells grow very little, if at all. A compound which reverses the cytopathic effect of HIV would allow for rapid cell growth, approaching that of the mock-infected cells. […]"}, "[2]": {"tested_on": "Hepatitis B Virus (HBV)", "assay": "Antiviral activity against HBV: extracellular HBV DNA from HepG2 2.2.15 cells", "format": "cell-based, human HBV", "conditions": "culture medium, treated at 25 μm (so in the source)", "protocol": "Anti-HBV activity of compounds of formula (I) was determined using a method described by Korba B. E. and Milman G., Antiviral Research, 1991, Vol.15, pp217-228.\nThe assay utilises the human HBV producer cell line of HepG2, 2.2.15, described and characterized by Sells et al., PNAS 84, 1005 (1987) and J. Virol. […] This cell line was utilized in vitro to identify compounds with anti-HBV activity.\nSupernatant media containing extracellular virion DNA (Dane particles) were harvested on days 0, 4 and 9, treated with proteinase K (1 mg/mL) and sodium dodecyl sulfate (1%), and incubated at 50° C. for one hour. DNA was extracted with equal volumes of phenol followed by chloroform and then precipitated using ammonium acetate and propanol. […] After precipitation by ammonium acetate and propanol, the intracellular DNA precipitate was dissolved, cut by restriction endonuclease, Hind III, applied co agarose gel and then treated as described by Southern to determine the quantity of replicative intermediate forms. The antiviral effect of the drug was determined by measuring at least a 100-fold reduction in the amount of Dane particles extruded into the culture medium and a similar decrease in the intracellular replicative intermediates."}}, "note": "Where “and” joins values, the source holds several entries; their conditions need not be identical. Equal values may be shown once.", "data": [{"smiles": "CN(C)c1nc(N)nc2c1ncn2[C@H]1C[C@H](F)[C@@H](CO)O1", "note": "[Example 13, 2-Amino-9-(2,3-dideoxy-3-fluoro-β-D-erythro-pentofuranosyl)-6-(dimethylamino)-9H-purine]", "values": [{"measurement": "IC50", "setting": "[1]", "result": 8, "unit": "µM"}, {"measurement": "Extracellular HBV DNA, Day 0", "setting": "[2]; Day 0", "result": "60 pg/mL and 99 pg/mL and 77 pg/mL and 67 pg/mL"}, {"measurement": "Extracellular HBV DNA, Day 4", "setting": "[2]; Day 4", "result": "57 pg/mL and 33 pg/mL and 53 pg/mL and 51 pg/mL"}]}]}
